# Results published in the OPERA property sets (Mansouri et al. 2018).
Compound,melting point,log10 vapour pressure (mmHg),boiling point,ready biodegradability,log10 Koc (L/kg),log10 Henry constant (atm·m³/mol),log10 Koa
O=C(c1ccccc1)C1CCCCC1,56 °C,,,,,,
O=C(O)c1cccc(Br)c1,155 °C,-4.04,,,,,
Cc1cc2nc3c(=O)[nH]c(=O)nc-3n(C)c2cc1C,320 °C,,,,,,
CC(=O)OCCCCl,,,164 °C,,,,
C=COC(=O)CCl,,,,readily biodegradable,,,
Cc1ccc2[nH]ccc2c1,60 °C,,267 °C,,,,
C=C(C)C(=O)OCC(F)(F)C(F)F,,,124 °C,,,,
CC(=O)Nc1ccc(OC(=O)c2ccccc2OC(C)=O)cc1,175 °C,,,,,,
Cc1cc(C)c(C)c(O)c1,93.5 °C,-2.42,230 °C,,3.61,,
CCN(CC)CCCN(c1ccccc1)C1Cc2ccccc2C1,120 °C,,,,,,
CC(Cl)=CCl,,1.96,,,,,
CCC(=O)O[C@H]1CC[C@H]2[C@@H]3CC[C@H]4CC(=O)[C@H](C)C[C@]4(C)[C@H]3CC[C@]12C,128 °C,,,,,,
CC(C)(O)C(Cl)(Cl)Cl,97 °C,,167 °C,not readily biodegradable,,,
C[B]C,-72.5 °C,,70.5 °C,,,,
CC(C)(C)O,25.4 °C,1.61,82.4 °C,not readily biodegradable,,-5.04,3.5
Clc1cc(Cl)c(-c2c(Cl)ccc(Cl)c2Cl)cc1Cl,,-5.07,,,5.79,,9.27
COc1c(OC)c(OC(C)=O)c2c(OC)cccc2c1OC(C)=O,69.5 °C,,,,,,
COC(=O)CCCCC(=O)O,9 °C,,,,,,
CNC(N)=S,120 °C,,,,,,
S=c1sc2nc3ccccc3nc2s1,180 °C,,,,,,

Compound,melting point,log10 vapour pressure (mmHg),boiling point,ready biodegradability,log10 Koc (L/kg),log10 Henry constant (atm·m³/mol),log10 Koa
CCCCCCCCCCCCOS(=O)(=O)O,,,,readily biodegradable,,,
O=C(O)CCCc1c[nH]c2ccccc12,124 °C,,,,,,
O=C1CCC[C@@H]2[C@H]3CCCN4CCC[C@@H](CN12)[C@@H]34 (racemic),76 °C,,,,,,
c1ccc2cc3c4ccccc4c4ccccc4c3cc2c1,206 °C,-10,524 °C,,,,
Cc1cccc(C(=O)O)c1O,166 °C,,,not readily biodegradable,,,
CCOC(=O)C(F)(F)C(F)(F)F,75.5 °C,,,,,,
CN1CCN(C2=Nc3ccccc3Oc3ccc(Cl)cc32)CC1,110 °C,,,,,,
FC(F)=C(F)I,,,30 °C,,,,
NC(=O)c1ccccc1Cl,143 °C,,,,1.51,,
CP(=O)(O)CCC(N)C(=O)[O-].[NH4+] (stereo unspecified),215 °C,,,,,,
O=C(O)c1cc(I)c(O)c(I)c1,237 °C,,,,,,
CN(C)CCN,,,105 °C,not readily biodegradable,,,
CCCCC#N,-96.2 °C,0.863,141 °C,,,,3.6
CCCCc1cccnc1,,,206 °C,,,,
CC[C@H]1OC(=O)[C@H](C)C(=O)[C@H](C)[C@@H](O[C@@H]2O[C@H](C)C[C@H](N(C)C)[C@H]2O)[C@@H](C)C[C@@H](C)C(=O)C=C[C@]1(C)O,170 °C,,,,,,
Cc1cccc2cc3c(ccc4ccccc43)cc12,156 °C,,,,,,
COc1ccc(C(C)=O)cc1,38.5 °C,-2.19,258 °C,,,,
C=C,-169 °C,4.72,-104 °C,,,-0.642,0.28
CC(C)(C)c1ccc2c(c1)C(=O)c1ccccc1C2=O,99 °C,,,not readily biodegradable,,,
C=CCc1ccccc1O,-6 °C,,220 °C,readily biodegradable,,,

Compound,melting point,log10 vapour pressure (mmHg),boiling point,ready biodegradability,log10 Koc (L/kg),log10 Henry constant (atm·m³/mol),log10 Koa
FC1(F)C(F)(F)C(F)(F)C(F)(F)C(F)(F)C1(F)F,,2.23,50.6 °C,,,,
CCCCc1ccncc1,,,209 °C,,,,
C=Cc1ccc(Br)cc1,7.7 °C,-0.108,212 °C,,,,
CC(C)(C)c1cc(N=Nc2ccccc2[N+](=O)[O-])c(O)c(C(C)(C)C)c1,,,,not readily biodegradable,,,
Cc1c(N)cccc1N,106 °C,-2.61,260 °C,,,,
Nc1ccccc1C(=O)O,145 °C,,,readily biodegradable,,,
FC(Cl)(Cl)C(Cl)(Cl)Cl,101 °C,,135 °C,,,,
Cc1c(N)cc([N+](=O)[O-])cc1[N+](=O)[O-],174 °C,,,,,,
C=CC[C@@H](C)CC,-142 °C,1.87,86.7 °C,,,,
CC(C)=C1OC(=O)N(c2cc(OC3CCCC3)c(Cl)cc2F)C1=O,104 °C,,,,,,
Cc1cc(C)c(O)c(C(C)(C)C)c1,22.3 °C,-1.35,249 °C,not readily biodegradable,,,
Cc1ccc([C@H](C)O)cc1,,,219 °C,,,,
CC1(C)[C@H](C(=O)O[C@H](C#N)c2cccc(Oc3ccccc3)c2)[C@@H]1C(Br)C(Br)(Br)Br (stereo partly specified),143 °C,-10.4,,,5,,
CCCCCCCC(=O)c1ccccc1,22.8 °C,,285 °C,,,,
Nc1ccc2cc3ccccc3cc2c1,239 °C,,,,4.45,,
COc1ccc(/C=N/NC(=O)c2ccncc2)cc1OC,189 °C,,,,,,
Cc1ccc(S)cc1,43 °C,-0.191,195 °C,,,,
CC=CC(=O)Cl,,,124 °C,,,,
CC(C)(Cl)C(=O)O,31 °C,,,,,,
CC(C)[C@@H](C)C(=O)O,-1.5 °C,,192 °C,,,,
